This note sets out measurements from PubChem BioAssay (NCI).

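Method: 48-hour compound exposure of cells in 96-well plates, five concentrations, linear interpolation of endpoints. At the GI50, growth is halved. TGI marks complete inhibition of growth.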

Test systems include NCI-H226 lung; SNB-75 CNS; CCRF-CEM leukemia; OVCAR-5 ovarian; NCI-H460 lung; HT29 colon; COLO 205 colon; SW-620 colon; SN12C renal; NCI/ADR-RES ovarian.
Common to all, as to experiment: NCI-60 cell line screen, 48 h

With `C/C(=N\NC(=S)N1CCCC1)c1ccccn1`, the GI50 with NCI-H226 lung was under 0.01 µM; in the assay with SNB-75 CNS, 0.273 µM; in the assay on CCRF-CEM leukemia, under 0.01 µM; in the assay on OVCAR-5 ovarian, 0.0763 µM; in the assay on NCI-H460 lung, under 0.01 µM; in the assay with HT29 colon, under 0.01 µM. Besides, the GI50 in the assay with COLO 205 colon was under 0.01 µM; in the assay on SW-620 colon it was under 0.01 µM; in the assay on SN12C renal it was 0.0132 µM; with NCI/ADR-RES ovarian, under 0.01 µM. For the same molecule, the TGI with NCI-H226 lung came to 2.85 µM; in the assay on SNB-75 CNS, 13 µM; with CCRF-CEM leukemia, 23.1 µM; in the assay with OVCAR-5 ovarian, 14.8 µM; in the assay on NCI-H460 lung, 7.06 µM; with HT29 colon it was 17.8 µM. For the same molecule, the TGI in the assay with COLO 205 colon is 10.8 µM; in the assay on SW-620 colon it was 16.8 µM; in the assay with SN12C renal it was 11.8 µM; with NCI/ADR-RES ovarian, 10.6 µM.

Regarding `COc1ccc2c(c1)[n+](=O)c(/C=C/C(=O)c1cc(OC)c(OC)c(OC)c1)c(C)n2[O-]`, the GI50 is 22.1 µM in the assay on NCI-H226 lung; 11.9 µM in the assay with SNB-75 CNS; 1.87 µM in the assay with CCRF-CEM leukemia; 28.7 µM in the assay with OVCAR-5 ovarian; 13.3 µM with NCI-H460 lung; 4.35 µM in the assay on HT29 colon. For the same molecule, the GI50 in the assay on COLO 205 colon was 1.65 µM; in the assay on SW-620 colon, 4.03 µM; with SN12C renal it was 6.33 µM; in the assay with NCI/ADR-RES ovarian it was 11.3 µM. Also, the TGI in the assay on NCI-H226 lung is over 100 µM; with SNB-75 CNS, 43.1 µM; in the assay on CCRF-CEM leukemia, 8.08 µM; in the assay with OVCAR-5 ovarian, over 100 µM; with NCI-H460 lung it was 45.5 µM; in the assay with HT29 colon, 50.9 µM. The TGI with COLO 205 colon stood at 11.3 µM; in the assay on SW-620 colon it was 47.6 µM; in the assay with SN12C renal it was 48.5 µM; with NCI/ADR-RES ovarian, 39.5 µM.

For `COc1ccc(C(=O)c2ccccc2)c(O)c1`, the GI50 in the assay on NCI-H226 lung was over 100 µM; in the assay with SNB-75 CNS, 20.4 µM; in the assay with CCRF-CEM leukemia it was over 100 µM; in the assay on OVCAR-5 ovarian, over 100 µM; in the assay on NCI-H460 lung, 88.4 µM; in the assay on HT29 colon, 43.8 µM. Besides, the GI50 in the assay on COLO 205 colon was over 100 µM; with SW-620 colon it was over 100 µM; with SN12C renal it was 75.6 µM; in the assay with NCI/ADR-RES ovarian, 53.1 µM. Further, the TGI with NCI-H226 lung, in the assay with SNB-75 CNS, in the assay with CCRF-CEM leukemia, in the assay with OVCAR-5 ovarian, with NCI-H460 lung and in the assay with HT29 colon was over 100 µM in each case. Further, the TGI with COLO 205 colon, in the assay on SW-620 colon, in the assay with SN12C renal and in the assay on NCI/ADR-RES ovarian was over 100 µM each time.

Take `CSCc1ncc(-c2ccc(C(F)(F)F)cc2)c(NC2CCCCCC2)n1`: the GI50 with NCI-H226 lung, in the assay on SNB-75 CNS, in the assay on CCRF-CEM leukemia, in the assay with OVCAR-5 ovarian, in the assay with NCI-H460 lung and in the assay on HT29 colon was over 10 µM each time. Further, the GI50 with COLO 205 colon, in the assay with SW-620 colon, in the assay with SN12C renal and in the assay on NCI/ADR-RES ovarian was over 10 µM in each case. Besides, the TGI with NCI-H226 lung, in the assay on SNB-75 CNS, in the assay with CCRF-CEM leukemia, in the assay with OVCAR-5 ovarian, in the assay with NCI-H460 lung and in the assay on HT29 colon was over 10 µM in each case. In addition, the TGI in the assay on COLO 205 colon, with SW-620 colon, in the assay with SN12C renal and with NCI/ADR-RES ovarian was over 10 µM throughout.

`COc1ccc(N=c2nc3sc4cc(Cl)ccc4n3c(N)c2C#N)cc1`: the GI50 was 1.92 µM with NCI-H226 lung; 3.4 µM with SNB-75 CNS; 11 µM in the assay with CCRF-CEM leukemia; 5.21 µM in the assay on OVCAR-5 ovarian; 21.1 µM in the assay with NCI-H460 lung; 1.31 µM with HT29 colon. Also, the GI50 was 2.39 µM in the assay on COLO 205 colon, 3.69 µM in the assay on SW-620 colon, 15.3 µM with SN12C renal and 2.95 µM in the assay with NCI/ADR-RES ovarian. Besides, the TGI in the assay on NCI-H226 lung is 7.99 µM; in the assay with SNB-75 CNS it was over 100 µM; with CCRF-CEM leukemia, over 100 µM; in the assay with OVCAR-5 ovarian, over 100 µM; in the assay on NCI-H460 lung, over 100 µM; in the assay on HT29 colon it was over 100 µM. The TGI with COLO 205 colon is 6.47 µM; in the assay on SW-620 colon, 29.7 µM; with SN12C renal, over 100 µM; in the assay with NCI/ADR-RES ovarian it was 9.08 µM.

Consider `CN(C)CCN=c1nc2c(c(N)n1-c1ccccc1)c(=S)n(-c1ccccc1)c(=S)n2-c1ccccc1`, for which the GI50 in the assay with NCI-H226 lung was 13 µM; in the assay on SNB-75 CNS, 2.3 µM; in the assay with CCRF-CEM leukemia, 4.68 µM; with OVCAR-5 ovarian, 9.95 µM; in the assay with NCI-H460 lung it was 2.33 µM; with HT29 colon it was 1.48 µM. Further, the GI50 with COLO 205 colon is 1.52 µM; in the assay on SW-620 colon it was 1.93 µM; in the assay with SN12C renal, 6.21 µM; in the assay on NCI/ADR-RES ovarian, 10.4 µM. In addition, the TGI in the assay with NCI-H226 lung turned out to be 27.6 µM; in the assay on SNB-75 CNS, 7.27 µM; in the assay with OVCAR-5 ovarian, 25.5 µM; with NCI-H460 lung it was 6.29 µM; in the assay on HT29 colon it was 3.82 µM; with COLO 205 colon, 3.32 µM. Moreover, the TGI stood at 4.87 µM with SW-620 colon, 20.5 µM with SN12C renal and 26.7 µM in the assay with NCI/ADR-RES ovarian.
